The text below walks through data of patent US10278931B2, “Composition for treatment of inflammatory bowel disease and atopic dermatitis” (INNOPHARMASCREEN INC., priority 2015, dated 2019).

This experiment deals with DSS-induced animal model. The experiment is described as follows: DSS-induced inflammatory bowel disease (enteritis) model. In kind it is in vivo, C57BL/6 mice. The protocol: Six-week-old female SPF (Specific pathogen-free) C57BL/6 mice were purchased from DuPont Biotech. The mice were allowed to freely ingest a feed and water after an acclimation period of 1 week in an animal room of Hoseo University Safety Evaluation Center maintained at temperature of 21±3° C., humidity of 50±20%, and light/darkness cycle of 12 h/12 h. All procedures in the present animal experiment were conducted after approved by the Animal Experimental Ethics Committee of Hoseo University (HTRC-15-19, and HTRC-16-22(2)).
Dextran sodium sulfate (cat no 160110 by Mpbio. corn) as a colitis inducer was diluted to 3% concentration in drinking water and orally administered to mice to induce enteritis. The mice were divided into 6 groups and DW was administered to the animals of a control, and 1.0 mg/kg and 10 mg/kg of the test material were orally administered to the animals of the experimental groups once a day for […]. Sulfasalazine (100 mg/kg) dissolved in crude olive oil was orally administered once a day to the animals of a positive control. In acute cases, disease progression levels were examined after 5 days of administration. In chronic cases, disease progression levels were examined 15 days and 30 days after the 5 days of administration (reference: Toxicology Reports 2 (2015) 10391045-Caryophyllene attenuates dextran sulfate sodium-induced colitis in mice via modulation of gene expression associated mainly with colon inflammation).
Body weights were measured once for 5 days or more during the test period. The measured weights were quantified as 0 point if there was no difference compared with the normal control, 1 point for weight loss rate of 15%, 2 points for 510%, 3 points for 1015%, and 4 points for >15%. Feces observation was performed to examine the incidence of diarrhea, and the results thereof were quantified as scores (0, normal stool; 1, mildly soft stool; 2, very soft stool; 3, very soft stool (no regular shape); 4, watery stool).
Rectal tissues and blood were collected from 5 individuals for each of the autopsy times. Yuhan ketamine 50® (Yuhan Corporation, Korean) and Rompun (Bayer, USA) were mixed in a ratio of 3:1, and then used to anesthetize animals via muscular injection. Each anesthetized animal was subjected to laparotomy to collect blood from the abdominal artery, and after blood collection, the abdominal artery was cut and subjected to venesection and death to collect rectal tissue. The length and weight of the collected tissue were measured to calculate weight per 1 cm of the tissue. Some of the collected tissues were used in biopsy, and some thereof were frozen in liquid nitrogen and stored at −70° C. before analysis. […]

Molecules are shown by their SMILES.

Consider `Cl.N=C(N)NC(=N)Nc1ccc(Cl)cc1` [IPS-07001], for which the “enteritis inhibitory activity (ratio of enteric weight to enteric length, wt/cm)” value (10 mg/kg oral, compared to DSS control) is on record as “superior enteritis inhibitory activity”. Besides, the melena result (compared to the DSS-induced group, oral) is given as “significantly decreased”.
